Assay results from the supplement of paper PMC10307832.

Columns and labels:
Experiment in all cases: relative viability (nuclei count vs DMSO), 5 days (fraction); higher = more cells survive
Motesanib + Alpelisib = compound: CC1(C)CNc2cc(NC(=O)c3cccnc3NCc3ccncc3)ccc21 [Motesanib] + Cc1nc(NC(=O)N2CCC[C@H]2C(N)=O)sc1-c1ccnc(C(C)(C)C(F)(F)F)c1 [Alpelisib] (partner 2 µM)
In short: (§1)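 For relative viability, nuclei counts in treated wells were divided by those in vehicle wells. Lung cancer cell lines had been pin-tool dosed in 1536-well plates the day after seeding and cultured for 5 days, then fixed and stained in one step (final 0.05% Triton X-100, 1% formaldehyde, 1 ug/ml Hoechst) and imaged at 4×. Doses were one drug alone or a fixed anchor-drug dose plus five library-drug doses (not always all listed) in √10 steps, and values are duplicate-plate medians.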

Motesanib + Dasatinib = compound: CC1(C)CNc2cc(NC(=O)c3cccnc3NCc3ccncc3)ccc21 [Motesanib] + Cc1nc(Nc2ncc(C(=O)Nc3c(C)cccc3Cl)s2)cc(N2CCN(CCO)CC2)n1 [Dasatinib] (partner 0.075 µM)
In short: as §1

[1] = compound: C[C@@]1(C(=O)Nc2ccc(F)nc2)CCCN1c1nc(Nc2cc(C3CC3)n[nH]2)c2cccn2n1 + COc1cc2c(Oc3ccc(NC(=O)C4(C(=O)Nc5ccc(F)cc5)CC4)cc3F)ccnc2cc1OCCCN1CCOCC1 [Foretinib] (partner 0.25 µM)
In short: as §1

[2] = compound: C[C@@]1(C(=O)Nc2ccc(F)nc2)CCCN1c1nc(Nc2cc(C3CC3)n[nH]2)c2cccn2n1 + C[C@@H](Oc1cc(-c2cnn(C3CCNCC3)c2)cnc1N)c1c(Cl)ccc(F)c1Cl [Crizotinib] (partner 1 µM)
In short: as §1

Cell Line | relative viability (Motesanib + Alpelisib; first compound 0.01 µM) | relative viability (Motesanib + Alpelisib; first compound 0.03162 µM) | relative viability (Motesanib + Alpelisib; first compound 0.1 µM) | relative viability (Motesanib + Alpelisib; first compound 0.3162 µM) | relative viability (Motesanib + Alpelisib; first compound 1 µM) | relative viability (Motesanib + Dasatinib; first compound 0.01 µM) | relative viability (Motesanib + Dasatinib; first compound 0.03162 µM) | relative viability (Motesanib + Dasatinib; first compound 0.1 µM) | relative viability (Motesanib + Dasatinib; first compound 0.3162 µM) | relative viability (Motesanib + Dasatinib; first compound 1 µM) | relative viability ([1]; first compound 0.04 µM) | relative viability ([1]; first compound 0.1265 µM) | relative viability ([1]; first compound 0.4 µM) | relative viability ([1]; first compound 1.265 µM) | relative viability ([2]; first compound 0.04 µM) | relative viability ([2]; first compound 0.1265 µM) | relative viability ([2]; first compound 0.4 µM) | relative viability ([2]; first compound 1.265 µM)
NCI-H2085 | 0.939 | 1.01 | 1.02 | 0.943 | 1.05 | 0.286 | 0.204 | 0.225 | 0.252 | 0.23 | 0.989 | 0.736 | 0.73 | 0.675 | 0.913 | 0.979 | 0.844 | 0.635
NCI-H2087 | 1.01 | 1.08 | 1.07 | 1.16 | 1.03 | 0.838 | 0.841 | 0.774 | 0.91 | 0.895 | 0.812 | 0.801 | 0.705 | 0.72 | 0.88 | 1.06 | 0.699 | 0.613
NCI-H2126 | 0.77 | 0.723 | 0.724 | 0.768 | 0.699 | 0.598 | 0.541 | 0.597 | 0.545 | 0.635 | 0.885 | 0.661 | 0.485 | 0.865 | 0.923 | 0.845 | 0.672 | 0.98
NCI-H2170 | 0.803 | 0.789 | 0.824 | 0.785 | 0.794 | 0.533 | 0.507 | 0.463 | 0.511 | 0.57 | 0.932 | 1.02 | 0.973 | 1.08 | 1.09 | 1.11 | 1.03 | 1.27
NCI-H2228 | 0.767 | 0.713 | 0.722 | 0.777 | 0.806 | 0.497 | 0.49 | 0.549 | 0.495 | 0.502 | 0.719 | 0.686 | 0.491 | 0.537 | 0.395 | 0.342 | 0.262 | 0.255
NCI-H2347 | 1.02 | 1 | 1.14 | 1.09 | 1.18 | 0.299 | 0.302 | 0.344 | 0.3 | 0.305 | 1.32 | 0.818 | 1.02 | 0.834 | 0.706 | 0.75 | 0.629 | 0.569
NCI-H2405 |  | 0.738 | 0.745 | 0.86 | 0.942 |  | 0.196 | 0.232 | 0.283 | 0.208 | 0.866 | 0.818 | 0.742 | 0.77 | 0.862 | 0.759 | 0.649 | 0.889
